Source: patent US6716833B2, “Acetylenic α-amino acid-based sulfonamide hydroxamic acid tace inhibitors” (priority 1999, dated 2004)

biological target: TNF-α converting enzyme (TACE) (Homo sapiens, UniProt P78536); experiment: TACE inhibition (fluorescent peptidyl substrate); format: biochemical; conditions: IC 50 nM (In Vitro Inhibition of TACE), Table 15
Sequence (P78536 215-824, species assumed): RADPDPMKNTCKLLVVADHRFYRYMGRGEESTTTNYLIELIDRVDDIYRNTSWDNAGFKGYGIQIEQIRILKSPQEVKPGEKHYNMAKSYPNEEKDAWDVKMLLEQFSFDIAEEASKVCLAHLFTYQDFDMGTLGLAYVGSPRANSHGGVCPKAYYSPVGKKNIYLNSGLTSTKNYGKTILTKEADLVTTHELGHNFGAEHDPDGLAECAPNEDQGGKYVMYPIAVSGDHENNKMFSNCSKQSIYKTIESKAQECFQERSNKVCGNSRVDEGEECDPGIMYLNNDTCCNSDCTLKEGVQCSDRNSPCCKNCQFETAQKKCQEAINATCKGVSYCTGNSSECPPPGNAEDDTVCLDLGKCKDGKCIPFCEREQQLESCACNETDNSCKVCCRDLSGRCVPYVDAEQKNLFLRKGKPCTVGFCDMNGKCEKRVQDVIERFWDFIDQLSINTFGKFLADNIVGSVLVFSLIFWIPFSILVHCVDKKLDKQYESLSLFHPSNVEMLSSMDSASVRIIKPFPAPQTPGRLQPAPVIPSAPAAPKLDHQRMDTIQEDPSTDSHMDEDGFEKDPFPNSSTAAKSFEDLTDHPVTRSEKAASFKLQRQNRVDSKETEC

SMILES	IC50 [nM]
CC#CCOc1ccc(S(=O)(=O)N[C@H](CCCN)C(=O)NO)cc1 [Example 314, (2R)-5-Amino-2-({[4-(but-2-ynyloxy)phenyl]sulfonyl}amino)-N-hydroxypentanamide]	25
CC#CCOc1ccc(S(=O)(=O)N[C@H](Cc2ccc(F)cc2)C(=O)NO)cc1 [Example 316, (2R)-2-({[4-(But-2-ynyloxy)phenyl]sulfonyl}amino)-3-(4-fluorophenyl)-N-hydroxypropanamide]	4
CC#CCOc1ccc(S(=O)(=O)N[C@H](Cc2ccc([N+](=O)[O-])cc2)C(=O)NO)cc1 [Example 317, (2R)-2-({[4-(But-2-ynyloxy)phenyl]sulfonyl}amino)-N-hydroxy-3-(4-nitrophenyl)propanamide]	6.5
CC#CCOc1ccc(S(=O)(=O)N2CCCC[C@@H]2C(=O)NO)cc1 [Example 318, (2R)-1-{[4-(But-2-ynyloxy)phenyl]sulfonyl}-N-hydroxypiperidine-2-carboxamide]	11.9
CC#CCOc1ccc(S(=O)(=O)N[C@H](CO)C(=O)NO)cc1 [Example 319, (2R)-2-({[4-(But-2-ynyloxy)phenyl]sulfonyl}amino)-N,3-dihydroxypropanamide]	10.5
CC#CCOc1ccc(S(=O)(=O)N[C@H](COCc2ccccc2)C(=O)NO)cc1 [Example 320, (2R)-3-(Benzyloxy)-2-({[4-(but-2-ynyloxy)phenyl]sulfonyl}amino)-N-hydroxypropanamide]	7.4
CC#CCOc1ccc(S(=O)(=O)N[C@H](Cc2cccs2)C(=O)NO)cc1 [Example 321, (2R)-2-({[4-(But-2-ynyloxy)phenyl]sulfonyl}amino)-N-hydroxy-3-thien-2-yl-propanamide]	4.7
CC#CCOc1ccc(S(=O)(=O)N[C@@H](C(=O)NO)[C@H](C)O)cc1 [Example 322, (2R,3S)-2-({[4-(But-2-ynyloxy)phenyl]sulfonyl}amino)-N,3-dihydroxybutanamide]	11.8
CC#CCOc1ccc(S(=O)(=O)N[C@@H](C(=O)NO)[C@H](C)OCc2ccccc2)cc1 [Example 323, (2R,3S)-3-(Benzyloxy)-2-({[4-(but-2-ynyloxy)phenyl]sulfonyl}amino)-N-hydroxybutanamide]	17.6
CC#CCOc1ccc(S(=O)(=O)N2CSC[C@@H]2C(=O)NO)cc1 [Example 324, (4S)-3-{[4-(But-2-ynyloxy)phenyl]sulfonyl}-N-hydroxy-1,3-thiazolidine-4-carboxamide]	14.7
CC#CCOc1ccc(S(=O)(=O)N2Cc3ccccc3C[C@@H]2C(=O)NO)cc1 [Example 325, (3R)-2-{[4-(But-2-ynyloxy)phenyl]sulfonyl}-N-hydroxy-1,2,3,4-tetrahydroisoquinoline-3-carboxamide]	6.9
CC#CCOc1ccc(S(=O)(=O)N[C@H](Cc2ccc(OCc3ccccc3)cc2)C(=O)NO)cc1 [Example 326, (2R)-3-[4-(Benzyloxy)phenyl]-2-({[4-(but-2-ynyloxy)phenyl]sulfonyl}amino)-N-hydroxypropanamide]	58.6
CC#CCOc1ccc(S(=O)(=O)N[C@@H](C(=O)NO)c2ccccc2)cc1 [Example 327, (2R)-2-({[4-(But-2-ynyloxy)phenyl]sulfonyl}amino)-N-hydroxy-2-phenylethanamide]	5.5
CC#CCOc1ccc(S(=O)(=O)N[C@H](CCCNC(C)=O)C(=O)NO)cc1 [Example 328, (2R)-5-(Acetylamino)-2-({[4-(but-2-ynyloxy)phenyl]sulfonyl}amino)-N-hydroxypentanamide]	6.26
CC#CCOc1ccc(S(=O)(=O)N[C@H](CCCNC(=O)c2ccc3[nH]cnc3c2)C(=O)NO)cc1 [Example 329, N-[(4R)-4-({[4-(But-2-ynyloxy)phenyl]sulfonyl}amino)-5-(hydroxyamino)-5-oxopentyl]-1H-benzimidazole-5-carboxamide]	6.88
CC#CCOc1ccc(S(=O)(=O)N[C@H](CCCNC(=O)c2ccccc2)C(=O)NO)cc1 [Example 330, N-[(4R)-4-({[4-(But-2-ynyloxy)phenyl]sulfonyl}amino)-5-(hydroxyamino)-5-oxopentyl]benzamide]	3.58
CC#CCOc1ccc(S(=O)(=O)N[C@H](CCCNC(=O)c2ccc(Br)cc2)C(=O)NO)cc1 [Example 331, 4-Bromo-N-[(4R)-4-({[4-(but-2-ynyloxy)phenyl]sulfonyl}amino)-5-(hydroxyamino)-5-oxopentyl]benzamide]	5.32

SMILES	IC50 [nM]
CC#CCOc1ccc(S(=O)(=O)N[C@H](CCCNC(=O)CCC)C(=O)NO)cc1 [Example 332, (2R)-2-({[4-(But-2-ynyloxy)phenyl]sulfonyl)amino)-5-(butyrylamino)-N-hydroxypentanamide]	5.13
CC#CCOc1ccc(S(=O)(=O)N[C@H](CCCNC(=O)c2sccc2Cl)C(=O)NO)cc1 [Example 333, N-[(4R)-4-({[4-(But-2-ynyloxy)phenyl]sulfonyl}amino)-5-(hydroxyamino)-5-oxopentyl]-3-chlorothiophene-2-carboxamide]	4.21
CC#CCOc1ccc(S(=O)(=O)N[C@H](CCCNC(=O)c2ccc(Cl)cc2)C(=O)NO)cc1 [Example 334, N-[(4R)-4-({[4-(But-2-ynyloxy)phenyl]sulfonyl}amino)-5-(hydroxyamino)-5-oxopentyl]-4-chlorobenzamide]	4.7
CC#CCOc1ccc(S(=O)(=O)N[C@H](CCCNC(=O)C2CCCCC2)C(=O)NO)cc1 [Example 335, N-[(4R)-4-({[4-(But-2-ynyloxy)phenyl]sulfonyl}amino)-5-(hydroxyamino)-5-oxopentyl]cyclohexanecarboxamide]	6.5
CC#CCOc1ccc(S(=O)(=O)N[C@H](CCCNC(=O)c2c(C)noc2C)C(=O)NO)cc1 [Example 338, N-[(4R)-4-({[4-(But-2-ynyloxy)phenyl]sulfonyl)amino)-5-(hydroxyamino)-5-oxopentyl]-3,5-dimethylisoxazole-4-carboxamide]	3.73
CC#CCOc1ccc(S(=O)(=O)N[C@H](CCCNC(=O)CCc2ccccc2)C(=O)NO)cc1 [Example 339, (2R)-2-({[4-(But-2-ynyloxy)phenyl]sulfonyl}amino)-N-hydroxy-5-[(3-phenylpropanoyl)amino]pentanamide]	4.6
CC#CCOc1ccc(S(=O)(=O)N[C@H](CCCNC(=O)c2ccncc2)C(=O)NO)cc1 [Example 340, N-[(4R)-4-({[4-(But-2-ynyloxy)phenyl]sulfonyl}amino)-5-(hydroxyamino)-5-oxopentyl]isonicotinamide]	6.67
CC#CCOc1ccc(S(=O)(=O)N[C@H](CCCNC(=O)c2cccnc2)C(=O)NO)cc1 [Example 341, N-[(4R)-4-({[4-(But-2-ynyloxy)phenyl]sulfonyl}amino)-5-(hydroxyamino)-5-oxopentyl]nicotinamide]	4.88
CC#CCOc1ccc(S(=O)(=O)N[C@H](CCCNC(=O)c2ccccc2OC)C(=O)NO)cc1 [Example 342, N-[(4R)-4-({[4-(But-2-ynyloxy)phenyl]sulfonyl}amino)-5-(hydroxyamino)-5-oxopentyl]-2-methoxybenzamide]	4.54
CC#CCOc1ccc(S(=O)(=O)N[C@H](CCCNC(=O)c2ccc(OC)cc2)C(=O)NO)cc1 [Example 343, N-[(4R)-4-({[4-(But-2-ynyloxy)phenyl]sulfonyl}amino)-5-(hydroxyamino)-5-oxopentyl]-4-methoxybenzamide]	3.54
CC#CCOc1ccc(S(=O)(=O)N[C@H](CCCNC(=O)Cc2ccc([N+](=O)[O-])cc2)C(=O)NO)cc1 [Example 344, (2R)-2-({[4-(But-2-ynyloxy)phenyl]sulfonyl}amino)-N-hydroxy-5-{[2-(4-nitrophenyl)acetyl]amino}pentanamide]	5.24
CC#CCOc1ccc(S(=O)(=O)N[C@H](CCCNC(=O)Cc2ccccc2)C(=O)NO)cc1 [Example 345, (2R)-2-({[4-(But-2-ynyloxy)phenyl]sulfonyl}amino)-N-hydroxy-5-[(2-phenylacetyl)amino]pentanamide]	4.43
CC#CCOc1ccc(S(=O)(=O)N[C@H](CCCNC(=O)c2cnc3ccccc3c2)C(=O)NO)cc1 [Example 346, N-[(4R)-4-({[4-(But-2-ynyloxy)phenyl]sulfonyl}amino)-5-(hydroxyamino)-5-oxopentyl]quinoline-3-carboxamide]	4.63
CC#CCOc1ccc(S(=O)(=O)N[C@H](CCCNC(=O)c2ccsc2)C(=O)NO)cc1 [Example 347, N-[(4R)-4-({[4-(But-2-ynyloxy)phenyl]sulfonyl}amino)-5-(hydroxyamino)-5-oxopentyl]thiophene-3-carboxamide]	3.15
CC#CCOc1ccc(S(=O)(=O)N[C@H](CCCNC(=O)/C=C/c2ccccc2)C(=O)NO)cc1 [Example 348, (E)-N-[(4R)-4-({[4-(But-2-ynyloxy)phenyl]sulfonyl}amino)-5-(hydroxyamino)-5-oxopentyl]-3-phenylprop-2-enamide]	6.25
CC#CCOc1ccc(S(=O)(=O)N[C@H](CCCCNC(=O)c2ccc3[nH]cnc3c2)C(=O)NO)cc1 [Example 349, N-[(5R)-5-({[4-(But-2-ynyloxy)phenyl]sulfunyl}amino)-6-(hydroxyamino)-6-oxohexyl]-1H-benzimidazole-5-carboxamide]	9.41
CC#CCOc1ccc(S(=O)(=O)N[C@H](CCCCNC(=O)c2ccccc2)C(=O)NO)cc1 [Example 350, N-[(5R)-5-({[4-(But-2-ynyloxy)phenyl]sulfonyl}amino)-6-(hydroxyamino)-6-oxohexyl]benzamide]	6.28

same assay, conditions: read-out: IC 50 nM (In Vitro Inhibition of TACE); Table 15

SMILES	IC50 [nM]
CC#CCOc1ccc(S(=O)(=O)N[C@H](Cc2ccc(F)c(F)c2)C(=O)NO)cc1 [Example 315, (2R)-2-({[4-(But-2-ynyloxy)phenyl]sulfonyl}amino)-3-(3,4-digluorophenyl)-N-hydroxypropanamide]	5.7
CC#CCOc1ccc(S(=O)(=O)N[C@H](CCCNC(=O)c2cc(C)oc2C)C(=O)NO)cc1 [Example 337, N-[(4R)-4-({[4-(But-2-ynyloxy)phenyl]sulfonyl}amino)-5-(hydroxyamino)-5-oxopentyl]-2,5-dimethyl-3-furamide]	4.2
